Measurements: US7230001B1, “Arylalkane, arylalkene and aryl azaalkane, medicaments containing said compounds and method for the production thereof” (Boehringer Ingelheim Pharma GmbH & Co. KG, priority 1999, dated 2007)

Row | melting point | Compound
1 | > 225 °C | Nc1c(Br)cc(C(=O)CCC(=O)N2CCC(N3Cc4cccnc4NC3=O)CC2)cc1Br [compound 13, 3-{1-[4-(4-amino-3,5-dibromophenyl)-1,4-dioxobutyl]-4-piperidinyl}-3,4-dihydro-2(1H)-pyrido[2,3-d]pyrimidinone]
2 | 243 °C | CC(=O)Nc1ccc(C(=O)CCC(=O)N2CCC(N3Cc4ccccc4NC3=O)CC2)cc1Br [compound 18, 3-{1-[4-(4-acetylamino-3-bromophenyl)-1,4-dioxobutyl]-4-piperidinyl}-3,4-dihydro-2(1H)-quinazolinone]
3 | 128 °C | CC(=O)Nc1ccc(C(=O)CCC(=O)N2CCC(n3c(=O)[nH]c4ccccc43)CC2)cc1Br [compound 19, 1-{1-[4-(4-acetylamino-3-bromophenyl)-1,4-dioxobutyl]-4-piperidinyl}-1,3-dihydro-2(2H)-benzimidazolone]
4 | 243 °C | CC(=O)Nc1ccc(C(=O)CCC(=O)N2CCC(n3cc(-c4ccccc4)[nH]c3=O)CC2)cc1Br [compound 21, 1-{1-[4-(4-acetylamino-3-bromophenyl)-1,4-dioxobutyl]-4-piperidinyl}-1,3-dihydro-4-phenyl-2(2H)-imidazolone]
5 | 267 °C | Nc1ccc(C(=O)CCC(=O)N2CCC(n3cc(-c4ccccc4)[nH]c3=O)CC2)cc1Br [compound 24, 1-{1-[4-(4-amino-3-bromophenyl)-1,4-dioxobutyl]-4-piperidinyl}-1,3-dihydro-4-phenyl-2(2H)-imidazolone]
6 | 171 to 172 °C | COc1ccc(C(=O)CCC(=O)N2CCC(N3Cc4ccccc4NC3=O)CC2)cc1 [compound 25, 3,4-dihydro-3-{1-[1,4-dioxo-4-(4-methoxyphenyl)butyl]-4-piperidinyl}-2(1H)-quinazolinone]
7 | 237 to 238 °C | O=C(CCC(=O)N1CCC(N2Cc3ccccc3NC2=O)CC1)c1ccc(Cl)cc1 [compound 26, 3,4-dihydro-3-{1-[4-(4-chlorophenyl)-1,4-dioxobutyl]-4-piperidinyl}-2(1H)-quinazolinone]
8 | 258 to 259 °C (dec.) | CNc1ccc(C(=O)CCC(=O)N2CCC(N3Cc4ccccc4NC3=O)CC2)cc1[N+](=O)[O-] [compound 27, 3,4-dihydro-3-{1-[1,4-dioxo-4-(4-methylamino-3-nitrophenyl)butyl]-4-piperidinyl}-2(1H)-quinazolinone]
9 | 207 to 209 °C | O=C(CCC(=O)N1CCC(N2Cc3ccccc3NC2=O)CC1)c1ccc(Cl)c([N+](=O)[O-])c1 [compound 28, 3,4-dihydro-3-{1-[4-(4-chloro-3-nitrophenyl)-1,4-dioxo-butyl]-4-piperidinyl}-2(1H)-quinazolinone]
10 | 256 to 258 °C | COc1cc2c(cc1OC)NC(=O)N(C1CCN(C(=O)CCC(=O)c3cc(Br)c(N)c(Br)c3)CC1)C2 [compound 29, 3-{1-[4-(4-amino-3,5-dibromophenyl)-1,4-dioxobutyl]-4-piperidinyl}-3,4-dihydro-6,7-dimethoxy-2(1H)-quinazolinone]
11 | > 250 °C | Nc1c(Br)cc(C(=O)CCC(=O)N2CCC(N3Cc4ccncc4NC3=O)CC2)cc1Br [compound 42, 3-{1-[4-(4-amino-3,5-dibromophenyl)-1,4-dioxobutyl]-4-piperidinyl}-3,4-dihydro-2(1H)-pyrido[3,4-d]pyrimidinone]
12 | > 250 °C | Nc1c(Br)cc(C(=O)CCC(=O)N2CCC(N3Cc4cnccc4NC3=O)CC2)cc1Br [compound 43, 3-{1-[4-(4-amino-3,5-dibromophenyl)-1,4-dioxobutyl]-4-piperidinyl}-3,4-dihydro-2(1H)-pyrido[4,3-d]pyrimidinone]
13 | 272 to 274 °C (dec.) | Nc1c(Br)cc(C(=O)CCC(=O)N2CCN(c3cc4ccccc4[nH]c3=O)CC2)cc1Br [compound 59, 3-{1-[4-(4-amino-3,5-dibromophenyl)-1,4-dioxobutyl]-4-piperazinyl}-2(1H)-quinolinone]
14 | 246 to 252 °C | Nc1c(Br)cc(C(=O)CCC(=O)N2CCN(c3nc4ccccc4[nH]c3=O)CC2)cc1Br [compound 61, 3-{1-[4-(4-amino-3,5-dibromophenyl)-1,4-dioxobutyl]-4-piperazinyl}-2(1H)-quinoxalinone]
15 | 200 °C | O=C(CCC(=O)N1CCC(N2Cc3ccccc3NC2=O)CC1)c1ccc(-c2ccccc2)cc1 [compound 62, 3-{1-[4-(4-biphenylyl)-1,4-dioxobutyl]-4-piperidinyl}-3,4-dihydro-2(1H)-quinazolinone]
16 | 162.5 to 163.5 °C | Nc1c(Br)cc(CCCC(=O)N2CCC(n3cc(-c4ccccc4)[nH]c3=O)CC2)cc1Br [compound 64, 1-{1-[4-(4-amino-3,5-dibromophenyl)-1-oxobutyl]-4-piperidinyl}-1,3-dihydro-4-phenyl-2(2H)-imidazolone]
17 | 212 to 214 °C | O=C(CCC(=O)N1CCC(N2Cc3ccccc3NC2=O)CC1)c1cc(Br)cc(Br)c1 [compound 65, 3-{1-[4-(3,5-dibromophenyl)-1,4-dioxobutyl]-4-piperidinyl}-3,4-dihydro-2(1H)-quinazolinone]
18 | 174 to 175 °C | COc1ccccc1C(=O)CCC(=O)N1CCC(N2Cc3ccccc3NC2=O)CC1 [compound 66, 3-{1-[1,4-dioxo-4-(2-methoxyphenyl)butyl]-4-piperidinyl}-3,4-dihydro-2(1H)-quinazolinone]
19 | 164 to 166 °C | O=C(CCC(=O)N1CCC(N2Cc3ccccc3NC2=O)CC1)c1ccc(F)cc1 [compound 67, 3-{1-[1,4-dioxo-4-(4-fluorophenyl)butyl]-4-piperidinyl}-3,4-dihydro-2(1H)-quinazolinone]
20 | 191 to 193 °C | N#Cc1ccc(C(=O)CCC(=O)N2CCC(N3Cc4ccccc4NC3=O)CC2)cc1 [compound 72, 3-{1-[4-(4-cyanophenyl)-1,4-dioxobutyl]-4-piperidinyl}-3,4-dihydro-2(1H)-quinazolinone]
